# Reference: patent US10124065B2, “Lipids and lipid compositions for the delivery of active agents” (Novartis AG, priority 2013, dated 2018)
# Where “and” joins values, the source holds several entries; their conditions need not be identical. Equal entries are not always repeated. Where two headings read alike, the source gives them in different places.
# Experiments:
# [1] = pKa measurement of cationic lipid (TNS fluorescence); type: physicochemical; conditions: pKa of the cationic lipid of formula (I), Table 4
# Protocol: Unless indicated otherwise, all pKa's referred to herein were measured at standard temperature and pressure. Also, unless otherwise indicated, all references to pKa are references to pKa measured using the following technique. 2 mM solution of lipid in ethanol was prepared by weighing the lipid and then dissolving it in ethanol. 0.3 mM solution of fluorescent probe TNS in ethanol:methanol 9:1 was prepared by first making 3 mM solution of TNS in methanol and then diluting to 0.3 mM with ethanol. An aqueous buffer containing 200 mM sodium phosphate dibasic and 100 mM citric acid was prepared. […] Using the Hamilton Microlab Star high throughput liquid handler and Hamilton run control software Software, 7.5 uL of probe/lipid mix were added to 242.5 uL of buffer in a 1 mL 96 well plate (model NUNC 260252, […] Nunc International). This was done with all twelve buffers. After mixing in 1 mL 96 well plate, 100 uL of each probe/lipid/buffer mixture was transferred to a 250 uL black with clear bottom 96 well plate (model COSTAR 3904, Corning). The fluorescence measurements are carried out on the SpectraMax M5 spectrophotometer using software SoftMax pro 5.2 and following parameters: After the measurement, the background fluorescence value of an empty well on the 96 well plate was subtracted from each probe/lipid/buffer mixture. The fluorescence intensity values were then normalized to the value at lowest pH. The normalized fluorescence intensity vs. pH chart was then plotted in the Microsoft Excel software. The twelve points were connected with a smooth line. The point on the line at which the normalized fluorescence intensity was equal to 0.5 was found. […] The pKa determined using this method is precise to about 0.1 pKa units.
# [2] = Particle size of lipid nanoparticle (dynamic light scattering, Malvern Zetasizer); type: physicochemical
# Source text: The lipid nanoparticles have a size of about 1 to about 2,500 nm, about 1 to about 1,500 nm, about 1 to about 1,000 nm, in a sub-embodiment about 50 to about 600 nm, in a sub-embodiment about 50 to about 400 nm, in a sub-embodiment about 50 to about 250 nm, and in a sub-embodiment about 50 to about 150 nm. Unless indicated otherwise, all sizes referred to herein are the average sizes (diameters) of the fully formed nanoparticle, as measured by dynamic light scattering on a Malvern Zetasizer. The nanoparticle sample is diluted in phosphate buffered saline (PBS) so that the count rate is approximately 200-400 kcts. The data is presented as a weighted average of the intensity measure. Unless indicated otherwise, all particle size measurements referred to in Tables 4 and 5 are the Z-average particle size of the fully formed nanoparticle, as measured by dynamic light scattering on a Malvern Zetasizer. The nanoparticle sample was diluted in phosphate buffered saline (PBS) so that the count rate is approximately 200-400 kcts.
# [3] = Polydispersity index (PDI) of lipid nanoparticle (dynamic light scattering); type: physicochemical
# Protocol: Unless indicated otherwise, all PDIs referred to herein are the PDI of the fully formed nanoparticle, as measured by dynamic light scattering on a Malvern Zetasizer. The nanoparticle sample was diluted in phosphate buffered saline (PBS) so that the count rate was approximately 200-400 kcts. The data is presented in Tables 4 and 5 as a weighted average of the intensity measure.
# [4] = system: plasma Factor VII enzyme activity; assay: Mouse Factor VII dosing / Factor VII Activity Assay; type: in vivo; conditions: percent knock down of plasma Factor VII activity, CD-1 mice, 48 h; for KD FVII 0.03 mg/kg: single IV dose 0.03 mg/kg; for KD FVII 0.3 mg/kg: single IV dose 0.3 mg/kg
# Protocol: Female CD-1 mice were received from Harlan Labs and maintained on standard lab chow and water ad libitum. The animals weighed approximately 25 grams at time of dosing. Formulated Factor VII siRNA was administered as a single dose intravenously via the lateral tail vein. Approximately 48 hours after injection, the mice were euthanized by CO2 inhalation followed by exsanguination through the vena cava. […] Plasma collected from injected mice was assayed for Factor VII enzyme activity using the Biophen FVII kit from Hyphen Biomedical (catalog number 221304). An assay standard curve was prepared using pooled plasma aliquots from the vehicle control animals. All samples were diluted to fall within the linear range of the standard curve and Factor VII activity relative to control plasma was reported. Lipid nanoparticles comprising lipid compounds of formula (I) and the FVII siRNA duplex sequence listed above were tested in the Factor VII Activity Assay. The results of this assay are given in Table 4 below as a percent knock down of plasma Factor VII enzyme activity at a dose of 0.3 mg/kg and 0.03 mg/kg.
# [5] = system: respiratory syncytial virus F protein; assay: Immunization studies, anti-RSV-F titers; type: in vivo; conditions: anti-RSV-F titer; BALB/c; course A = days 0 & 21; 4 weeks after second dose; liposomes with 0.1 μg vA317 replicon (naked: 1 μg)
# Protocol: BALB/c were immunized with liposomes comprising DSPC, cholesterol, and various lipids of the invention (or, for comparison, the cationic lipid 1,2-dilinoleyloxy-N,N-dimethyl-3-aminopropane or ‘DLinDMA’). The liposomes encapsulated 0.1 μg of “vA317” self-replicating RNA replicon which encodes respiratory syncytial virus F protein (see WO2012/031043). […] Doses were given either on days 0 & 21 or days 0 & 42. Immune responses were assessed 2 weeks after each dose (2wp1, 2wp2), and in some cases also at 4 weeks after the second dose (4wp2).
# [6] = FVII siRNA LNP, Chol/DSPC/S010, molar ratio 45/44/9/2, Z-average
# [7] = FVII siRNA LNP, Chol/DSPC/S010, molar ratio 45/44/9/2
# [8] = LNP Chol/DSPC/PEG-DMG 45/44/9/2
# [9] = PLK1-424 siRNA LNP, Chol/DSPC/S010 45/44/9/2
Compound,"pKa ([1]; probe TNS, read-out: pKa)","KD FVII 0.03 mg/kg [4, 8] [%]",other results
"CCCCCCCC(=O)OCCCCCCCCCCOc1cc(CN(C)C)cc(OCCCCCCCCCCOC(=O)CCCCCCC)c1OCCCCCCCCCCOC(=O)CCCCCCC [Ex. 99, ((5-((dimethylamino)methyl)benzene-1,2,3-triyl)tris(oxy))tris(decane-10,1-diyl)trioctanoate]",5.75,,
"CCCCC/C=C\C/C=C\CCCCCCCC(=O)OCCCCOc1cc(CN(C)C)cc(OCCCCOC(=O)CC(CCCCCCCC)CCCCCCCC)c1 [Ex. 109, (9Z,12Z)-4-(3-((dimethylamino)methyl)-5-(4-((3-octylundecanoyl)oxy)butoxy)phenoxy)butyl octadeca-9,12-dienoate]",,,"Size (nm) [2, 6]: 91.98 nm; PDI [3, 7]: 0.09; KD FVII 0.03 mg/kg ([4]; LNP Chol/DSPC/S010 45/44/9/2): 68.97%"
"CCCCCCC(CCCCCC)CCCCCC(=O)OCCCCOc1cc(CN(C)C)cc(OCCCCOC(=O)CCCCCC(CCCCCC)CCCCCC)c1 [Ex. 113, ((5-((dimethylamino)methyl)-1,3-phenylene)bis(oxy))bis(butane-4,1-diyl)bis(7-hexyltridecanoate)]",6.03,57.6,
"CCCCCC(CCCCC)CCCCCCCC(=O)OCCCCOc1cc(CN(C)C)cc(OCCCCOC(=O)CCCCCCCC(CCCCC)CCCCC)c1 [Ex. 114, ((5-((dimethylamino)methyl)-1,3-phenylene)bis(oxy))bis(butane-4,1-diyl)bis(9-pentyltetradecanoate)]",5.97,44,
"CCCCCCCC(CCCCCCC)CCCC(=O)OCCCCOc1cc(CN(C)C)cc(OCCCCOC(=O)CCCC(CCCCCCC)CCCCCCC)c1 [Ex. 115, ((5-((dimethylamino)methyl)-1,3-phenylene)bis(oxy))bis(butane-4,1-diyl)bis(5-heptyldodecanoate)]",5.87,78,
"CCCCCCCCC(CCCCCCCC)CC(=O)OCCCCOc1cc(CN(C)C)cc(OCCCCOC(=O)CC(CCCCCCCC)CCCCCCCC)c1 [Ex. 116, ((5-((dimethylamino)methyl)-1,3-phenylene)bis(oxy))bis(butane-4,1-diyl)bis(3-octylundecanoate)]",5.67,29,
"CCCCCCCC(CCCCCCC)CCCC(=O)OCc1cc(COC(=O)CCCC(CCCCCCC)CCCCCCC)cc(CN(C)C)c1 [Ex. 117, (5-((dimethylamino)methyl)-1,3-phenylene)bis(methylene)bis(5-heptyldodecanoate)]",5.46,,
"CCCCCCC(CCCCCC)CCCCCC(=O)OCc1cc(COC(=O)CCCCCC(CCCCCC)CCCCCC)cc(CN(C)C)c1 [Ex. 118, (5-((dimethylamino)methyl)-1,3-phenylene)bis(methylene)bis(7-hexyltridecanoate)]",5.67,46.3,
"CCCCCC(CCCCC)CCCCCCCC(=O)OCc1cc(COC(=O)CCCCCCCC(CCCCC)CCCCC)cc(CN(C)C)c1 [Ex. 119, (5-((dimethylamino)methyl)-1,3-phenylene)bis(methylene)bis(9-pentyltetradecanoate)]",5.84,7.8,
"CCCCC/C=C\C/C=C\CCCCCCCC(=O)OCCCCOc1cc(CCCN2CCCCC2)cc(OCCCCOC(=O)CCCCCCC/C=C\C/C=C\CCCCC)c1 [Ex. 120, (9Z,9′Z,12Z,12′Z)-((5-(3-(piperidin-1-yl)propyl)-1,3-phenylene)bis(oxy))bis(butane-4,1-diyl)bis(octadeca-9,12-dienoate)]",6.31,83.7,
"CCCCC/C=C\C/C=C\CCCCCCCC(=O)OCCCCOc1cc(CCCN2CCOCC2)cc(OCCCCOC(=O)CCCCCCC/C=C\C/C=C\CCCCC)c1 [Ex. 122, (9Z,9′Z,12Z,12′Z)-((5-(3-morpholinopropyl)-1,3-phenylene)bis(oxy))bis(butane-4,1-diyl)bis(octadeca-9,12-dienoate)]",5.06,,
CCCCCCCCCC(=O)OCCCCCCCCOc1cc(COC(=O)CCN(C)C)cc(OCCCCCCCCOC(=O)CCCCCCCCC)c1 [Ex. 123],6.08,,
"CCCCCCCCCC(=O)OCCCCCCCCOc1cc(COC(=O)CCCN(C)C)cc(OCCCCCCCCOC(=O)CCCCCCCCC)c1 [Ex. 124, ((5-(((4-(dimethylamino)butanoyl)oxy)methyl)-1,3-phenylene)bis(oxy))bis(octane-8,1-diyl)bis(decanoate)]",7.11,,
"CCCCCCCC(=O)OCC(COC(=O)CCCCCCC)OCCCCOc1cc(CN(C)C)cc(OCCCCOC(COC(=O)CCCCCCC)COC(=O)CCCCCCC)c1 [Ex. 125, ((((5-((dimethylamino)methyl)-1,3-phenylene)bis(oxy))bis(butane-4,1-diyl))bis(oxy))bis(propane-3,2,1-triyl)tetraoctanoate]",5.75,,
"CCCCCCCC/C=C\CCCCCCCCOc1cc(CN(C)C)cc(OCCCCCCCC/C=C\CCCCCCCC)c1 [Example 1, 1-(3,5-bis((Z)-octadec-9-en-1-yloxy)phenyl)-N,N-dimethylmethanamine]",,,"Size (nm) ([2]; FVII siRNA LNP, Chol/DSPC/PEG-DMG, molar ratio 45/44/9/2, Z-average): 98.2 nm; Size (nm) [2, 6]: 87.16 nm; Size (nm) [2, 9]: 74.56 nm; PDI ([3]; FVII siRNA LNP, Chol/DSPC/PEG-DMG, molar ratio 45/44/9/2): 0.05; PDI [3, 7]: 0.124; PDI [3, 9]: 0.152; KD FVII 0.03 mg/kg ([4]; LNP Chol/DSPC/S010 45/44/9/2): 30.8%; KD FVII 0.3 mg/kg [4, 8]: 75.1%"
"CCCCC/C=C\C/C=C\CCCCCCCCOc1cc(COC(=O)CCN(C)C)cc(OCCCCCCCC/C=C\C/C=C\CCCCC)c1 [Example 14, 3,5-bis((9Z,12Z)-octadeca-9,12-dien-1-yloxy)benzyl 3-(dimethylamino)propanoate]",,,"Size (nm) [2, 6]: 81.74 nm; PDI [3, 7]: 0.059; 4wp2 pool 1 [5]: 13687 and 21375; 4wp2 pool 2 [5]: 18851 and 21347"
"CCCCC/C=C\C/C=C\CCCCCCCC(=O)OCc1cc(COC(=O)CCCCCCC/C=C\C/C=C\CCCCC)cc(CN(C)C)c1 [Example 33, (9Z,9′Z,12Z,12′Z)-(5-((dimethylamino)methyl)-1,3-phenylene)bis(methylene)bis(octadeca-9,12-dienoate)]",,,"pKa ([1]; listed as Ex. 33): 5.75; KD FVII 0.3 mg/kg [4, 8]: 90.4%"
"CCCCC/C=C\CC=CCCCCCCCC(=O)OCCCCOc1cc(CN(C)C)cc(OCCCCOC(=O)CCCCCCCC=CC/C=C\CCCCC)c1C [Example 51, (9Z,9′Z,12Z,12′Z)-((5-((dimethylamino)methyl)-2-methyl-1,3-phenylene)bis(oxy))bis(butane-4,1-diyl)bis(octadeca-9,12-dienoate)]",5.91,,
